Data on 1 molecule can be found in US12240854B2, “TRAF 6 inhibitors” (Helmholtz Zentrum München - Deutsches Forschungszentrum für …, priority 2018, dated 2025).

Entries after “also recorded” stand apart in the source; their conditions may differ.

Series [1] deals with T1, cIAP1 (Homo sapiens, UniProt Q13490).
T1 construct: purchased Boston Biochem
The experiment in a line: In vitro ubiquitination assay, cIAP1 ubiquitin ligase kit. The class given is biochemical. The note with it: K63 chain formation. On the procedure:
For analysis of cIAP1, MDM2, TRIM63, RNF4, ITCH and E6AP mediated poly-ubiquitination, the respective ubiquitin ligase kit from Boston Biochem (K-102, K-260, K-200B, K-220, K-240 and K-270) was used. Here, reaction buffer, E1, E2 and E3 enzyme (and p53 substrate in case of MDM2) were mixed and pre-incubated with compound or DMSO for 5 minutes at room temperature before adding Mg^2+-ATP and mono-ubiquitin for reaction start. Ubiquitination was visualized by Western Blot analyses.

Series [2] has as its system 24 different Ubiquitin reaction cascades (E2, E3 and substrate combinations). In words: Ubiquitin Profiler (Eurofins), single point. The class given is biochemical. The settings on record: 30 μM, 24 reactions. On the procedure:
C25-140 was sent to Eurofins Pharma Discovery Services UK to perform a Single Point Ubiquitin Profiler testing of C25-140 effect at a concentration of 30 μM on 24 different Ubiquitin reaction cascades employing distinct combinations of E2, E3 and substrate. Each reaction was measured in duplicates. Cascade activity is expressed as a percentage of the mean cascade activity in the positive control samples. The positive control value is considered to be 100%, and all test samples are referred to this value.

Series [3] concerns osteosarcoma cell line U2OS. In words: Cell growth of the osteosarcoma cell line U2OS with or without irradiation. The class given is cell-based. On the procedure: For analysis of the cell growth of the osteosarcoma cell line U2OS, 5×10^3 cells were seeded in 96 well plates. 18 hours later, cells were treated with C25-140 (compound 3) or DMSO for 6 hours. Using a ^137caesium source (HWM-D2000), selected samples were irradiated with a dose of either 2 Gy or 4 Gy. Cell growth was measured every 24 hours for a period of 7 days by counting Hoechst33342 positive cells in an Operetta High-Content Imaging System (PerkinElmer) and the Harmony/Columbus analysis software (PerkinElmer).

Series [4] has as its system Caco-2. The experiment in a line: ADME: Caco-2 assay. The format is in vitro ADME. On the procedure: (§1) All ADME (plasma stability, plasma protein binding, microsomal stability, Log D, Caco-2 assay, CYP450 inhibition and hERG predictor assay) as well as pharmacokinetic studies (Tmax, Cmax, AUC0-240min, Mean Residence Time, Elimination half life, Elimination rate constant, Volume of Distribution and Clearance) of C25-140 (compound 3) were conducted by Bienta Enamine Biology Services of Bienta/Enamine Ltd.

Series [5] deals with T2, hERG (Homo sapiens, UniProt Q12809).
T2 construct: Bienta Enamine Biology Services
The experiment in a line: ADME: hERG predictor assay. The format is in vitro ADME. On the procedure: as §1

Series [6] concerns 87 primary molecular targets (kinases, non-kinase enzymes, nuclear receptors, GPCRs, transporters and ion channels). The experiment in a line: SafetyScreen87 (Eurofins Cerep Panlabs). The class given is binding. The note with it: 10 μM. As for the experimental part:
The SafetyScreen87, a total of 87 assays, was carried out at Eurofins Cerep Panlabs. 87 primary molecular targets including 13 enzyme assays (kinases and non-kinase enzymes) and 74 binding assays (nuclear receptors, GPCRs, transporters and ion channels) were performed at a compound concentration of 10 μM C25-140. Each of the 87 assay reactions was performed at the optimised condition that was historically available at Eurofins Cerep Panlabs. In parallel to C25-140, a reference compound for each of the 87 reactions was concurrently tested to guarantee optimal setting of the assays. In this study the reference compounds performed in the same range as historic Ki values.

Series [7] deals with Collagen-Induced Arthritis (CIA) Model in DBA1/J mice. The experiment in a line: Collagen-Induced Arthritis (CIA) model. The format is in vivo, mouse. As for the experimental part:
In order to test the potential of C25-140 to ameliorate RA symptoms, a Collagen-Induced Arthritis (CIA) Model in DBA1/J mice was performed by Washington Biotechnology, Inc. (Baltimore, USA). Each group of ten mice was subjected to a single subcutaneous injection of collagen/complete Freund's Adjuvant emulsion (0.05 ml/mouse; 100 μg collagen/CFA). After 20 days (day 21), mice were booster injected with collagen (0.05 ml/mouse; 100 μg/mouse collagen in Incomplete Freund's Adjuvant). On day 28, mice were scored for their Arthritic Index (AI) and 14 days intraperitoneally dosed twice daily with 6 mg/kg, 10 mg/kg and 14 mg/kg C25-140, respectively. Mice were scored of macroscopic signs of arthritis daily. Thereby, the following scoring index was applied to each individual paw: 0=no visible effects of arthritis; 1=edema and/or erythema of 1 digit; 2=edema and/or erythema of 2 digits; 3=edema and/or erythema of more than 2 digits; 4=severe arthritis of entire paw and digits. Single paw scores were added and recorded. On day 42, animals were euthanized, limbs were collected and histopathology was performed using Toluidine blue staining with scoring of several parameters.

The test system of series [8] is primary human peripheral blood mononuclear cells (PBMCs). In words: Human PBMC cytokine secretion (ELISA). The class given is cell-based. On the procedure:
For measurement of cytokine secretion, 2×10^5 Jurkat T-cells or primary CD4^+ T-cells or human PBMCs per sample were seeded, treated with compound for 6 hours and stimulated as indicated. 20 hours after stimulation, supernatants were harvested and analyzed with the IL-2, IL-1β and TNFα Ready-Set-Go! ELISA (2nd Generation) kits provided by Affymatrix eBioscience.
For isolation of peripheral blood mononuclear cells (PBMCs) from 50 mL human blood of three different donors, blood was mixed with 800 units of Heparin (Sigma-Aldrich) and centrifuged at 300×g for 10 minutes without brake. After removal of the plasma fraction, buffy coat was diluted in 2 volumes PBS and added on top of 15 ml Lymphoprep (STEMCELL technologies). After centrifugation at 160×g for 20 minutes at room temperature without brake, platelets were removed and the cell suspension was centrifuged again at 350×g for 20 minutes without brake. Mononuclear cells from the intermediate layer were transferred to a new falcon and washed 3 times in PBS supplemented with 0.1% BSA and 2 mM EDTA. In the end, cells were resuspended in RPMI medium containing 10% FCS, 1% Penicillin/Streptomycin and 50 μM β-mercaptoethanol. Per sample, 2×10^5 cells were seeded and treated with compound for 6 hours. The cells were stimulated with either 1 μg/ml Lipopolysaccharide (LPS) or CD3/CD28 (1 μg hCD3 (IgG2A), 4 μg hCD28 (IgG1), […] and […]) or 20 ng/IL-1β. Supernatants for analysis of cytokine secretion were harvested 20 hours after stimulation.
(In general: ELISA stands for enzyme-linked immunosorbent assay.)

T1 sequence (Q13490 whole entry): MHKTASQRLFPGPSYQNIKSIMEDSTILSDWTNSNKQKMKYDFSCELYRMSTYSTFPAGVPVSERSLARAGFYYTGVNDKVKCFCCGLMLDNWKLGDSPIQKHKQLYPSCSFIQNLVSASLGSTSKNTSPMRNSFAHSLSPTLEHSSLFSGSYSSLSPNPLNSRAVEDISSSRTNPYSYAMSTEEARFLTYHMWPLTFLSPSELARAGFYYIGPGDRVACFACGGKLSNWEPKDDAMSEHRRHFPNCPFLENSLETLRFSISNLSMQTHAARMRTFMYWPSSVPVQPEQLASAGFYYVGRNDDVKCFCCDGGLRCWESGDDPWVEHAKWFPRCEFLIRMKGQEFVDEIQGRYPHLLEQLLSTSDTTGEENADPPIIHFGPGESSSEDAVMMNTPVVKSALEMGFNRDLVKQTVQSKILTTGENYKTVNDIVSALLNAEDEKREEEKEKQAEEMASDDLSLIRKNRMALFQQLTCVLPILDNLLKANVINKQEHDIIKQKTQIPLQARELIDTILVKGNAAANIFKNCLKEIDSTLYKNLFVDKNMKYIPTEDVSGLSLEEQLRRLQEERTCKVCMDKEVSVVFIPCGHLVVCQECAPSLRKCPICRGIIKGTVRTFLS
T2 sequence (Q12809 whole entry): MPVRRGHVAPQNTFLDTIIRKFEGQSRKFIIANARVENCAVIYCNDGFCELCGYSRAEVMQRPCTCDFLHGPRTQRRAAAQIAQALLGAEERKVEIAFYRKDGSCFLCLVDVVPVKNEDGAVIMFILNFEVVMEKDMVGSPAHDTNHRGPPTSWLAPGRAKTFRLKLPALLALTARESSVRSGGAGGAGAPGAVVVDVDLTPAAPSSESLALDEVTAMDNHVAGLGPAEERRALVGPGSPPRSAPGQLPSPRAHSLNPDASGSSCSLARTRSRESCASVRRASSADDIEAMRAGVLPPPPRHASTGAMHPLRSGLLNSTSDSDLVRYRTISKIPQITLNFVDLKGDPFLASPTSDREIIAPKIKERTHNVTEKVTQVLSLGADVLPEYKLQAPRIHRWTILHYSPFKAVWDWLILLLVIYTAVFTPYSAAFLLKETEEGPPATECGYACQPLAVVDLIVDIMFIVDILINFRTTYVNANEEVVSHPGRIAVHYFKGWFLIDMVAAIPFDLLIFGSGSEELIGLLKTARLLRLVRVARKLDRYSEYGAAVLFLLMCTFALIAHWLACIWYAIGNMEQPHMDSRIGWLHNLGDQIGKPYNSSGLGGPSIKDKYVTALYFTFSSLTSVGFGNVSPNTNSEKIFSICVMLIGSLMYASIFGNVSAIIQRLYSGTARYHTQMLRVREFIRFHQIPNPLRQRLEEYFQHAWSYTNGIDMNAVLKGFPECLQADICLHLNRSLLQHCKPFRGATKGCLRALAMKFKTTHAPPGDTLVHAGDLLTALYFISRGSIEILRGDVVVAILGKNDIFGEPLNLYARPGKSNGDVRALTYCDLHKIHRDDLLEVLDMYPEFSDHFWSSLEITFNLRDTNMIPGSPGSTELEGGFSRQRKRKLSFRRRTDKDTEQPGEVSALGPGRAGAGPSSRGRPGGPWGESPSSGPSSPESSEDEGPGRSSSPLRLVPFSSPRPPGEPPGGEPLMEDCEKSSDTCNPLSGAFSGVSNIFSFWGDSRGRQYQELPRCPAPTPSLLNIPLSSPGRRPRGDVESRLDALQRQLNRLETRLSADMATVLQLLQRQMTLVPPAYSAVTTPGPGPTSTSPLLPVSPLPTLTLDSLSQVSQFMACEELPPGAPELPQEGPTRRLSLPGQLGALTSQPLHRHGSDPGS

Regarding `Cc1nn(-c2ccc3nnc(C)n3n2)c(C)c1CCC(=O)N1CCC(Cc2ccccc2)CC1` [Example C25-140, 1-(4-Benzylpiperidin-1-yl)-3-(3,5-dimethyl-1-(3-methyl-[1,2,4]-triazolo-[4,3-b]-pyridazin-6-yl)-1H-pyrazol-4-yl)-propan-1-one], the “auto-ubiquitination of cIAP1” value in series [1] is listed as “indeed affected; also recorded: dose-dependently diminished”. Further, in series [2], the “Ubiquitin Profiler cascade activity” value was “None of these reactions was inhibited; also recorded: None of the reactions is considerably inhibited”. Further, the osteosarcoma cell growth entry in series [3] (30 μM compound + 2Gy irradiation) is “synergistic effects; also recorded: boosted the effect to the region of 4Gy irradiation; also recorded: decreases cell growth to the same extent as the higher dose of irradiation (4Gy)”; in series [3] (compound alone at 30 μM), “reducing proliferation of U2OS cells to the same degree as 2Gy irradiation; also recorded: same inhibitory impact; also recorded: reduced”. The Caco-2 permeability result in series [4] is recorded as “good penetration of the Caco-2 layer”. Besides, in series [5], the hERG inhibition entry is given as “does not very much inhibit hERG”. Also, in series [6], the “effect on / binding to the 87 SafetyScreen87 targets” value is reported as “no significant binding; also recorded: did not markedly affect any of the 87 molecular targets”. In addition, the “arthritic index (AI)” value is recorded as “dose-dependently reduced” in series [7] (6, 10 and 14 mg/kg IP twice daily, 14 days); “almost completely ameliorated the arthritic index to baseline levels” in series [7] (doses of 10 mg/kg and 14 mg/kg IP twice daily). Further, the “RA symptoms / disease outcome (in words)” value in series [7] (CIA mouse model) was “ameliorates RA disease outcomes; also recorded: successfully counteracted clinical symptoms of RA and reversed the disease state; also recorded: eases symptoms”. Also, the “histological score of the limbs (inflammation, pannus formation, cartilage damage, bone resorption)” value in series [7] (day 42) is listed as “dose-dependently improves RA symptoms; also recorded: attenuated”. Besides, the body weight entry in series [7] (throughout the study) is “did not show any signs of reduction; also recorded: do not show any signs of weight loss”. For the same molecule, the “secretion of IL-2 and TNFα” value in series [8] (CD3/CD28 stimulation) was “decreased levels of IL-2 and TNFα secretion”. Also, in series [8] (IL-1β stimulation), the “secretion of IL-6 and TNFα” value was “reduced secretion; also recorded: attenuated”. Further, in series [8] (LPS stimulation), the “secretion of IL-1β and TNFα” value is “reduced secretion; also recorded: reduced levels of IL-1β and TNFα cytokines”.
